Experimental data from PubChem BioAssay AID248 (DTP/NCI, 2004).
Values joined by “and” are separate entries in the source; they are usually repeats but may differ in a detail not shown here. Identical values can stand only once. Toxic doses and inconclusive results are not listed. No stated cut-off is given here; in the data, active means T/C of 150% or more; inactive means T/C below 125%.

Test system: L1210 leukemia ip in BDF1 mice, survival T/C
Test: NCI In Vivo Anticancer Drug Screen. Data for tumor model L1210 Leukemia (intraperitoneal) in B6D2F1 (BDF1) mice
Conditions: endpoint: mean survival time, higher = longer survival
Method in brief: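 Read-out is survival time, reported as the treated-group measurement over the vehicle-control measurement.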

[1] = dose: 100.0 mg/kg/injection, schedule: Q01DX009 (ip), vehicle: Klucel (hydroxypropylcellulose) (HPC)
[2] = dose: 200.0 mg/kg/injection, schedule: Q01DX009 (ip), vehicle: Klucel (hydroxypropylcellulose) (HPC)
[3] = dose: 100.0 mg/kg/injection, schedule: Q04DX003 (ip), vehicle: Klucel (hydroxypropylcellulose) (HPC)
[4] = dose: 200.0 mg/kg/injection, schedule: Q04DX003 (ip), vehicle: Klucel (hydroxypropylcellulose) (HPC)
[5] = dose: 100.0 mg/kg/injection, schedule: Q01DX001 (ip), vehicle: saline
[6] = dose: 200.0 mg/kg/injection, schedule: Q01DX001 (ip), vehicle: saline
[7] = dose: 400.0 mg/kg/injection, schedule: Q01DX001 (ip), vehicle: saline
[8] = dose: 100.0 mg/kg/injection, schedule: Q04DX003 (ip), vehicle: saline with Tween-80
[9] = dose: 200.0 mg/kg/injection, schedule: Q04DX003 (ip), vehicle: saline with Tween-80
[10] = dose: 400.0 mg/kg/injection, schedule: Q04DX003 (ip), vehicle: saline with Tween-80
[11] = dose: 100.0 mg/kg/injection, schedule: Q01DX009 (ip), vehicle: saline with Tween-80
[12] = dose: 200.0 mg/kg/injection, schedule: Q01DX009 (ip), vehicle: saline with Tween-80
[13] = dose: 400.0 mg/kg/injection, schedule: Q01DX009 (ip), vehicle: saline with Tween-80
[14] = dose: 50.0 mg/kg/injection, schedule: Q01DX001 (ip), vehicle: carboxymethylcellulose (CMC)
[15] = dose: 100.0 mg/kg/injection, schedule: Q01DX001 (ip), vehicle: carboxymethylcellulose (CMC)
[16] = dose: 200.0 mg/kg/injection, schedule: Q01DX001 (ip), vehicle: carboxymethylcellulose (CMC)
[17] = dose: 400.0 mg/kg/injection, schedule: Q01DX001 (ip), vehicle: carboxymethylcellulose (CMC)
[18] = dose: 50.0 mg/kg/injection, schedule: Q01DX001 (ip), vehicle: saline
[19] = dose: 100.0 mg/kg/injection, schedule: Q04DX002 (ip), vehicle: Klucel (hydroxypropylcellulose) (HPC)
[20] = dose: 200.0 mg/kg/injection, schedule: Q04DX002 (ip), vehicle: Klucel (hydroxypropylcellulose) (HPC)
[21] = dose: 400.0 mg/kg/injection, schedule: Q04DX002 (ip), vehicle: Klucel (hydroxypropylcellulose) (HPC)
[22] = dose: 12.5 mg/kg/injection, schedule: Q04DX003 (ip), vehicle: saline with Tween-80
[23] = dose: 25.0 mg/kg/injection, schedule: Q04DX003 (ip), vehicle: saline with Tween-80
[24] = dose: 50.0 mg/kg/injection, schedule: Q04DX003 (ip), vehicle: saline with Tween-80

Measured: T/C

C[CH2][Ge]([CH2]C)([CH2]C)[CH2]C#N
inactive: dose: 5.0 mg/kg/injection, schedule: Q04DX002 (ip), vehicle: saline with Tween-80 100 % of control | dose: 10.0 mg/kg/injection, schedule: Q04DX002 (ip), vehicle: saline with Tween-80 103 % of control | dose: 20.0 mg/kg/injection, schedule: Q04DX002 (ip), vehicle: saline with Tween-80 100 % of control

C[N+]1(C)N=C(c2ccccc2)C=C1[O-]
inactive: dose: 100.0 mg/kg/injection, schedule: Q04DX002 (ip), vehicle: other 111 % of control | dose: 200.0 mg/kg/injection, schedule: Q04DX002 (ip), vehicle: other 106 % of control | dose: 400.0 mg/kg/injection, schedule: Q04DX002 (ip), vehicle: other 100 % of control

CC1CCC2(O)C3(C)CC(=O)OC2(C1O)C1(O)C(C)C(O)(C(C)C)C(O)C31O (stereo not given)
inactive: dose: 5.0 mg/kg/injection, schedule: Q01DX001 (ip), vehicle: saline 101 % of control

CCNc1ccc([N+](=O)[O-])cn1
inactive: [1] 104 % of control | [2] 106 % of control

CC(=O)OC1CCC2(C)C3=C(CCC2C1(C)C)C1CCC(C(C)CCC=C(C)C)C1(C)CC3 (stereo not given)
inactive: [3] 96 % of control | [4] 96 % of control

COC(=O)C1(C)COP(=O)(O)OC1 (stereo not given)
inactive: [5] 91 % of control and 103 % of control | [6] 89 % of control and 100 % of control | [7] 97 % of control

O=[N+]([O-])c1cccc(S(=O)(=O)Oc2ccc(-c3ccccc3)cc2)c1
inactive: [8] 96 % of control | [9] 91 % of control | [10] 90 % of control

O=C1NCC2CCc3c(ccc4ccccc34)N12 (stereo not given)
inactive: dose: 100.0 mg/kg/injection, schedule: Q01DX001 (ip), vehicle: other 100 % of control | dose: 200.0 mg/kg/injection, schedule: Q01DX001 (ip), vehicle: other 94 % of control | dose: 400.0 mg/kg/injection, schedule: Q01DX001 (ip), vehicle: other 93 % of control

CCCCCCCCC1SC1CCCCCCCC(=O)NCCCOCCOCCOCC (stereo not given)
inactive: [3] 96 % of control | [4] 100 % of control | dose: 400.0 mg/kg/injection, schedule: Q04DX003 (ip), vehicle: Klucel (hydroxypropylcellulose) (HPC) 96 % of control

CCCCCCCCCCCC(=O)Nc1ccc2ccccc2c1
inactive: [11] 93 % of control and 97 % of control | dose: 100.0 mg/kg/injection, schedule: Q04DX002 (ip), vehicle: saline with Tween-80 105 % of control and 107 % of control | [8] 105 % of control | [12] 107 % of control and 88 % of control | dose: 200.0 mg/kg/injection, schedule: Q04DX002 (ip), vehicle: saline with Tween-80 93 % of control and 89 % of control | [9] 94 % of control | [13] 96 % of control and 90 % of control | dose: 400.0 mg/kg/injection, schedule: Q04DX002 (ip), vehicle: saline with Tween-80 94 % of control and 117 % of control | [10] 95 % of control

CCOC(=O)C(C#N)C(CC)(CC)C1CCCCC1 (stereo not given)
inactive: [14] 102 % of control | [15] 102 % of control | [16] 96 % of control | [17] 113 % of control

O=C1c2ccccc2-c2cc(Br)c(NC(Cl)Cl)cc21
inactive: [8] 94 % of control | [9] 93 % of control | [10] 94 % of control

CC(C)N=NCCO
inactive: dose: 100.0 mg/kg/injection, schedule: Q01DX001 (ip), vehicle: Klucel (hydroxypropylcellulose) (HPC) 101 % of control | dose: 200.0 mg/kg/injection, schedule: Q01DX001 (ip), vehicle: Klucel (hydroxypropylcellulose) (HPC) 103 % of control | [2] 92 % of control | dose: 400.0 mg/kg/injection, schedule: Q01DX001 (ip), vehicle: Klucel (hydroxypropylcellulose) (HPC) 99 % of control

CCCNC(c1ccc(C=NC(CC)(CO)CO)cc1)C(Cl)(Cl)Cl (stereo not given)
inactive: [5] 89 % of control | [6] 92 % of control | [7] 97 % of control

O=C(O)c1ccc(N/N=C/C(F)(F)F)cc1
inactive: dose: 25.0 mg/kg/injection, schedule: Q01DX009 (ip), vehicle: saline 95 % of control and 98 % of control | [18] 110 % of control | dose: 50.0 mg/kg/injection, schedule: Q01DX009 (ip), vehicle: saline 93 % of control and 106 % of control | [5] 96 % of control | dose: 100.0 mg/kg/injection, schedule: Q01DX009 (ip), vehicle: saline 95 % of control and 87 % of control | dose: 100.0 mg/kg/injection, schedule: Q04DX002 (ip), vehicle: saline 106 % of control and 109 % of control | dose: 200.0 mg/kg/injection, schedule: Q04DX002 (ip), vehicle: saline 96 % of control

CC([NH-])C(=O)O.CC([NH-])C(=O)O.[Ni+2] (stereo not given)
inactive: dose: 3.12 mg/kg/injection, schedule: Q01DX009 (ip), vehicle: saline 98 % of control | dose: 6.25 mg/kg/injection, schedule: Q01DX009 (ip), vehicle: saline 101 % of control | dose: 6.25 mg/kg/injection, schedule: Q04DX003 (ip), vehicle: saline 102 % of control | dose: 12.5 mg/kg/injection, schedule: Q01DX009 (ip), vehicle: saline 95 % of control | dose: 12.5 mg/kg/injection, schedule: Q04DX003 (ip), vehicle: saline 98 % of control and 104 % of control | dose: 25.0 mg/kg/injection, schedule: Q04DX003 (ip), vehicle: saline 105 % of control and 109 % of control | dose: 50.0 mg/kg/injection, schedule: Q04DX003 (ip), vehicle: saline 101 % of control

O=C(c1ccccc1)c1nc2ccccc2[nH]1
inactive: [19] 108 % of control | [20] 101 % of control | [21] 104 % of control

C1CCC(CC2CCNCC2)CC1
inactive: [22] 105 % of control | [23] 96 % of control | [24] 102 % of control

Cc1cc(C)c(C(Br)C(Br)c2c(C)cc(C)cc2C)c(C)c1 (stereo not given)
inactive: dose: 12.5 mg/kg/injection, schedule: Q01DX009 (ip), vehicle: saline with Tween-80 88 % of control | [22] 98 % of control | dose: 25.0 mg/kg/injection, schedule: Q01DX009 (ip), vehicle: saline with Tween-80 87 % of control | [23] 93 % of control | [24] 91 % of control

CC(Cc1ccccc1)Nc1ccccc1 (stereo not given)
inactive: [18] 93 % of control | [5] 100 % of control | [6] 93 % of control | [7] 93 % of control

CCOC(=O)CCC(=O)NNc1ccccc1
inactive: [14] 106 % of control | [15] 100 % of control | [16] 102 % of control | [17] 106 % of control

CC1CC(NC(=S)S)CC(C)(C)C1 (stereo not given)
inactive: dose: 25.0 mg/kg/injection, schedule: Q01DX009 (ip), vehicle: Klucel (hydroxypropylcellulose) (HPC) 93 % of control | dose: 50.0 mg/kg/injection, schedule: Q01DX009 (ip), vehicle: Klucel (hydroxypropylcellulose) (HPC) 95 % of control | [1] 97 % of control | [3] 93 % of control | [4] 96 % of control

O=C(C1C(c2ccccc2)C1c1ccccc1)N(CCO)c1ccccc1 (stereo not given)
inactive: dose: 12.5 mg/kg/injection, schedule: Q04DX002 (ip), vehicle: saline 94 % of control | dose: 25.0 mg/kg/injection, schedule: Q04DX002 (ip), vehicle: saline 106 % of control | dose: 50.0 mg/kg/injection, schedule: Q04DX002 (ip), vehicle: saline 94 % of control

CCc1ccccc1OC(=O)Nc1ccccc1C
inactive: [19] 95 % of control | [20] 100 % of control | [21] 95 % of control

COc1cc([N+](=O)[O-])c(Cl)cc1NS(=O)(=O)c1ccccc1
inactive: [11] 100 % of control | [8] 97 % of control | dose: 133.0 mg/kg/injection, schedule: Q04DX003 (ip), vehicle: saline with Tween-80 95 % of control and 89 % of control | [12] 103 % of control | dose: 300.0 mg/kg/injection, schedule: Q04DX003 (ip), vehicle: saline with Tween-80 95 % of control and 92 % of control | [13] 89 % of control | [10] 95 % of control

C/C(=N/Nc1ccc([N+](=O)[O-])cc1[N+](=O)[O-])c1ccccc1
inactive: [8] 88 % of control | [9] 93 % of control | [10] 90 % of control
